Experiments:
[1] = system: oligo I, d-(GGGATATATCCC)2, AT-rich oligonucleotide (DNA, duplex) GGGATATATCCC; assay: ITC; settings: Na+ 100 mM (NaCl), 10 mM HEPES, pH 7.0, 25°C; for Ka: apparent, (K1K2)^1/2 of two binding events; for binding: 1000 µM ligand titrated into 10 µM DNA, nd
[2] = system: oligo II, d-(GGGCGGCCGCCC)2, GC-rich oligonucleotide (DNA, duplex) GGGCGGCCGCCC; assay: ITC; settings: Na+ 100 mM (NaCl), 10 mM HEPES, pH 7.0, 25°C; for binding: 1000 µM ligand titrated into 10 µM DNA, nd

Row | SMILES | Ka [1] | binding [2] | binding constant ([1]; control titration) | binding constant ([2]; control titration) | binding [1]
1 | Cn1cc(NC(=O)c2cc(NC(=O)c3cccn3C)cn2C)cc1C(=O)NCCCn1cc(CN2CCCNCCNCCCNCC2)nn1.[Cu+2] | 1.2±0.2 ×10^5 M^−1 | no | – | – | –
2 | CC[n+]1c(-c2ccccc2)c2cc(N)ccc2c2ccc(N)cc21 | – | – | ~ 0.7×10^5 M^−1 | ~ 0.7×10^5 M^−1 | –
3 | Cn1cc(NC(=O)c2cc(NC(=O)c3cccn3C)cn2C)cc1C(=O)NCCCn1cc(CN2CCCNCCNCCCNCC2)nn1.[Zn+2] | 1.5±0.3 ×10^5 M^−1 | no | – | – | –

Continued, values first:

Row | Ka [1] | binding [2] | binding constant ([1]; control titration) | binding constant ([2]; control titration) | binding [1] | SMILES
4 | 2.7±0.3 ×10^5 M^−1 | no | – | – | – | Cn1cc(NC(=O)c2cc(NC(=O)c3cccn3C)cn2C)cc1C(=O)NCCCn1cc(CN2CCCNCCNCCCNCC2)nn1
5 | – | no | – | – | no | Cn1cc(NC(=O)c2cccn2C)cc1C(=O)NCCCn1cc(CN2CCCNCCNCCCNCC2)nn1
6 | – | no | – | – | no | Cn1cccc1C(=O)NCCCn1cc(CN2CCCNCCNCCCNCC2)nn1
